Consider 9 molecules from patent US10562848B2, “Inhibitors of TNF superfamily costimulatory interactions and methods for uses of the same” (UNIVERSITY OF MIAMI, priority 2015, dated 2020).

Read-outs that look alike come from different tables or passages of the source.

One assay has as its target T1, OX40-OX40L (Homo sapiens, UniProt P23510+P43489).
T1 sequence (P43489 29-214 limits assumed): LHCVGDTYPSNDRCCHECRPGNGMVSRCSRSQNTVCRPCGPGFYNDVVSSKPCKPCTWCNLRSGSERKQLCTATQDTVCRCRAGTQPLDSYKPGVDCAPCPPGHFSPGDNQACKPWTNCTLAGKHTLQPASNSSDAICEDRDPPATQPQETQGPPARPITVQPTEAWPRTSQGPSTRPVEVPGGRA
T1 sequence (P23510 51-183 limits assumed): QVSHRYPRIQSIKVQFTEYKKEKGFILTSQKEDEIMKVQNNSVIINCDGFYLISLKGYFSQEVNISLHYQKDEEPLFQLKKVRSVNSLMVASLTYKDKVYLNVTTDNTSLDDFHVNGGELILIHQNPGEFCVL
The experiment in a line: Cell-free ELISA-type OX40 binding inhibition assay. The conditions noted are these: Table 2. The protocol: (§1) Typical concentrations used were as follows—receptors: 0.3 μg/mL for CD40, TNF-R1, and RANK; 0.6 μg/mL for BAFF-R, OX40, and 4-1BB; and 2 μg/mL for EGF-R-ligands: 0.02 μg/mL for CD40L, TNFα, and RANKL; 0.2 μg/ml for BAFF, OX40L, 4-1BBL; and 0.3 μg/mL for EGF. Assays were done in duplicate or triplicate per plate and repeated at least three times; the averaged data were normalized and used for data fitting and analysis. Binding data were fitted using the standard log inhibitor versus response model in GraphPad Prism to determine the corresponding IC50 values.
For orientation: ELISA stands for enzyme-linked immunosorbent assay.

The next assay has as its target T2, human CD40-CD40L (Homo sapiens, UniProt P29965).
T2 construct: purchased Enzo Life Sciences (San Diego, Calif.)
T2 sequence (P29965 116-261 limits assumed): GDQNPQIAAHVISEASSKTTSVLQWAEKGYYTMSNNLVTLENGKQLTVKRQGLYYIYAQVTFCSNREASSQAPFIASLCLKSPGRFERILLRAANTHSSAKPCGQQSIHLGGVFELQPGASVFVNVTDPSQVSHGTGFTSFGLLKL
As to the kind of experiment: Cell-free ELISA-type CD40-CD40L binding inhibition assay. The protocol:
Compounds according to the disclosure were assessed for their ability to inhibit the binding of tagged ligands to plate-bound receptors using ELISA-type 96-well plate-based cell-free assays as described in the literature (see Margolles-Clark et al, J Mol Med 87:1133-1143 (2009); Margolles-Clark et al., Chem Biol Drug Des 76:305-313 (2010); Song et al., Br J Pharmacol 171:4955-4969 (2014); and Ganesan et al., Biochem Pharmacol 81:810-818 (2011)).
Recombinant receptors (hCD40:Fc, TNF-R1:Fc) and tagged ligands (hCD154, MegaCD40L, and TNF-α), were obtained from Enzo Life Sciences (San Diego, Calif.). Microtiter plates (Nunc F Maxisorp; 96-well) were coated overnight at 4° C. with 100 μL/well of Fc chimeric receptors diluted in PBS 7.2. This was followed by blocking with 200 μL/well of blocking solution (PBS 7.2, 0.05% Tween-20, 1% BSA) for 1 hour at room temperature. […] Either anti-FLAG-HRP or streptavidin-HRP conjugate was used to detect the bound FLAG-tagged or biotinylated ligand, respectively. Plates were washed three times before the addition of 120 μL/well of HRP substrate TMB (3, 3′, 5, 5′-tetramethylbenzidine) and kept in the dark for 15-30 min. The reaction was stopped using 30 μL 1M H2SO4, and the absorbance was read at 450 nm. Stock solutions of compounds at 10 mM in DMSO were used.
as §1

The subject of assay [1] is TNFSF costimulatory interactions. The conditions noted are these: literature; cited from earlier work.
The subject of assay [2] is CD40L-induced NF-κB activation in CD40 sensor cells (HEK Blue). As to the kind of experiment: Inhibition of CD40L-induced NF-κB activation in CD40 sensor cells (HEK-Blue). It is filed as cell-based, human. The conditions noted are these: CD40L 20 ng/mL, 18 h. From the text:
Activities of the compounds of the disclosure were confirmed in cell-based assays. As a first example, TNF-R1 and CD40 expressing sensor cells (HEK-Blue; InvivoGen, San Diego, Calif.) were used as described in the literature (see Song et al., Br J Pharmacol 171:4955-4969 (2014) and Cechin et al., Steroids 85:36-43 (2014)).
Cells were maintained in DMEM at 80% confluence for each experiment. Cells were trypsinized and re-suspended in the same medium with 1% FBS and seeded on 96-well microtiter plates at a density of 1×10^5 cells/well in the absence and presence of various concentrations of compounds diluted in the same media. For ligand mediated stimulation, final concentrations of recombinant human TNFα (2 ng/mL) and CD40L (20 ng/mL) were maintained in the wells for this purpose. After 18-hour incubation at 37° C., 20 μL supernatant of each well were taken and added to another 96-well microtiter plate containing 180 μL/well of QUANTI-Blue (InvivoGen, CA). The level of SEAP was determined after 30-minute incubation at 37° C. by reading at 625 nm using a spectrophotometer. […] Data are average±SD (normalized to CD40L-activated cells alone) for n=4 independent experiments with duplicates for each condition.

Assay [3] deals with CD40L-induced proliferation of human CD19+ B cells. As to the kind of experiment: Inhibition of CD40L-induced human CD19+ B-cell proliferation (BrdU). It is filed as cell-based. As to the method:
Because CD40 stimulation is an important signal for B cell proliferation, soluble CD40L can concentration-dependently induce the proliferation of human B cells.
Inhibition of cell proliferation was determined in freshly isolated human CD19^+ B cells using the colorimetric cell proliferation ELISA BrdU kit from Roche Applied Science (Indianapolis, Ind.). B cells were isolated from the PBMC as follows. Briefly, cells were washed three times with medium (RPMI 1640) and incubated for 20 min at 4° C. with 20 μL/10^7 cells of anti-CD19 Microbeads (Miltenyi Biotech, Bergisch Gladbach, Germany), according to the MiniMacs protocol (Miltenyi Biotech). Cells were then purified using magnetic columns. […] Cells were cultured in 96 wells plates (100 μL/well) at a cell density of 2×10^5 cells/mL in IMDM medium supplemented with 5% FBS, 100 U/mL penicillin, streptomycin 100 μg/mL, insulin-transferrin-selenium-G (all materials from Invitrogen, San Diego, Calif.) and 10 […] (R&D Systems). […] After 48 h, BrdU labeling solution was added as recommended, and cells were cultivated for another 48 h. Detection of incorporated BrdU was carried out following the instructions of the ELISA BrdU kit.
Data are average±SD for n=3 independent experiments with triplicates for each condition using a standard BrdU assay (Roche).

With `Nc1ccc(C(=O)Nc2ccc(-c3ccc(C(=O)Nc4cccc5cccc(S(=O)(=O)O)c45)cc3)cc2)cc1` [Compound 21042], the IC50 was determined as 12.8 µM at OX40-OX40L and 301 µM at human CD40-CD40L (IC50 CD40, Table 2). For the same molecule, the “inhibition of human CD40-CD40L binding (in words)” value at human CD40-CD40L (cell-free binding) is “concentration-dependent inhibition”.

With `O=C(Nc1ccc(-c2ccc(C(=O)Nc3cccc4cccc(S(=O)(=O)O)c34)cc2)cc1)c1ccc2[nH]nnc2c1` [Compound 21080], the half-maximal inhibitory concentration (IC50) amounted to 26.3 µM on OX40-OX40L and 1 µM on human CD40-CD40L (IC50 CD40, Table 2). The “inhibition of human CD40-CD40L binding (in words)” value at human CD40-CD40L (cell-free binding) is “concentration-dependent inhibition”.

As to `COC(=O)c1cccc2c(NC(=O)c3ccc(-c4ccc(NC(=O)c5ccc([N+](=O)[O-])cc5)cc4)cc3)cccc12` [Compound 24541], the concentration for half-maximal inhibition (IC50) at OX40-OX40L was 6560 µM; at human CD40-CD40L (Table 2, read-out: IC50 CD40), 916 µM.

`O=C(Nc1ccc(-c2ccc(C(=O)Nc3ccc(S(=O)(=O)O)c4ccccc34)cc2)cc1)c1ccc([N+](=O)[O-])cc1` [Compound 25041]: the IC50 at OX40-OX40L was determined as 7 µM; at human CD40-CD40L (IC50 CD40, Table 2), 2.3 µM. The “inhibition of human CD40-CD40L binding (in words)” value at human CD40-CD40L (cell-free binding) is recorded as “concentration-dependent inhibition”.

As for `O=C(Nc1ccc2c(O)c(N=Nc3ccc(N=Nc4ccc(S(=O)(=O)[O-])cc4)cc3S(=O)(=O)[O-])c(S(=O)(=O)[O-])cc2c1)Nc1ccc2c(O)c(N=Nc3ccc(N=Nc4ccc(S(=O)(=O)[O-])cc4)cc3S(=O)(=O)[O-])c(S(=O)(=O)[O-])cc2c1.[Na+].[Na+].[Na+].[Na+].[Na+].[Na+]` [DR80, direct red 80, reference compound], in assay [1], the “activity of other small molecule inhibitors (in words)” value is “active in the low μM range”. Also, the IC50 in assay [2] is 42.7 µM; on human CD40-CD40L (cell-free binding, n=3 independent experiments, read-out: IC50, inhibition of the CD40-CD40L interaction) it was 2.26 µM.

Turning to `O=C([O-])C1=NN(c2ccc(S(=O)(=O)[O-])cc2)C(=O)C1N=Nc1ccc(S(=O)(=O)[O-])cc1.[Na+].[Na+].[Na+]` (stereo not shown) [Tartrazine, reference compound], the “inhibition of CD40L-induced human CD19+ B-cell proliferation (in words)” value in assay [3] is “no proliferation inhibiting activity”. Moreover, the “inhibition of human CD40-CD40L binding (in words)” value on human CD40-CD40L (cell-free binding) is “inactive”.

As for `Nc1ccc2cc(S(=O)(=O)[O-])cc(O)c2c1N=Nc1ccc(-c2ccc(N=Nc3c(N)ccc4cc(S(=O)(=O)[O-])cc(O)c34)cc2)cc1.[Na+].[Na+]` [chlorazol violet N], the “activity of other small molecule inhibitors (in words)” value in assay [1] is listed as “active in the low μM range”.

As to `Cc1cc(S(=O)(=O)[O-])ccc1N=Nc1ccc(N=Nc2c(O)ccc3cccc(S(=O)(=O)[O-])c23)c(C)c1.[Na+].[Na+]` [crocein scarlet 7B], in assay [1], the “activity of other small molecule inhibitors (in words)” value was “active in the low μM range”.

On to mordant brown, for which the “activity of other small molecule inhibitors (in words)” value in assay [1] is “active in the low μM range”.

One may read the IC50 as the midpoint of a concentration-inhibition curve.
